Entries after “also recorded” stand apart in the source; their conditions may differ.

The record followed here is US20220218614A1, “IONIZABLE CATIONIC LIPIDS AND LIPID NANOPARTICLES, AND METHODS OF SYNTHESIS AND USE THEREOF” (Tidal Therapeutics, Inc., priority 2020, published 2022).

The test system of one experiment is human CD3 T cells. Briefly: Transfection of human CD3 T cells (CD8 and CD4 subsets) with Fab/Nb-targeted LNPs. The experiment is classed as cell-based. As to conditions: targeted Lipid 8 LNP (Lipid 5 in Example 43), GFP mRNA approximately 2.5 μg/mL, approximately 24 hr. As for the experimental part: (§1) LNPs were prepared using the mixing process described in Example 6, the buffer exchange process described below in Example 21. Using methods similar to Example 12, hSP34 and TRX2 Fab-lipid conjugates and a non-T cell specific anti-HER2 lipid-conjugate (Nellis D F, Ekstrom D L, Kirpotin D B, Zhu J, Andersson R, Broadt T L, Ouellette T F, Perkins S C, Roach J M, Drummond D C, Hong K, Marks J D, Park J W and Giardina S L (2005) Preclinical manufacture of an anti-HER2 scFv-PEG-DSPE, liposome-inserting conjugate. 1. Gram-scale production and purification. Biotechnol Prog 21:205-220) were post-inserted at various densities (SP34 0.25-17 g/mol; TRX2 0.25-9 g/mol; SP34+TRX2 0.25-9 g/mol each conjugate; anti-HER2 17 g/mol) into LNPs containing Lipid 8 and anti-CD20 targeting CART mRNA. Transfections were performed with human CD3 T cells at approximately 2.5 μg/mL mRNA for approximately 24 hr. For FACS analysis T cells were stained with M1 antibody (Sigma, F3040) that bind a N-terminus FLAG-tag variant sequence on the TTR-023 CAR (sequence provided below) in addition to staining for CD69 (Biolegend, 310930) and CD4 (Biolegend, 344648) to differentiate CD8 from CD4 cells.
LNPs were prepared using the mixing process described in Example 6, the buffer exchange process described in Example 21. Using methods similar to Example 12, hSP34, TRX2, and Ibalizumab Fab-lipid conjugates and a non-T cell specific anti-HER2 lipid-conjugate were post-inserted at various densities (specified in FIGS. 20A and 20B into LNPs containing Lipid 8 and Cy5/GFP mRNA. Transfections were performed with human CD3 T cells at approximately 2.5 μg/mL mRNA for approximately 24 hr and stained for CD69 (Biolegend, 310930) and CD4 (Biolegend, 344648) to differentiate CD8 from CD4 cells by FACS analysis.
LNPs were prepared using the mixing process described in Example 6, the buffer exchange process described in Example 21. […] Levels of transfection of CD3 T cells was measured by flow cytometry. […]

A further experiment relates to CD69. Briefly: CD69 upregulation on T cells after LNP transfection (FACS staining). The experiment is classed as cell-based, human. The conditions noted are these: approximately 24 hr after targeted Lipid 8 LNPs at approximately 2.5 μg/mL mRNA. Here is the method: as §1
LNPs were prepared using the mixing process described in Example 6, the buffer exchange process described in Example 21. […]

For “Ibalizumab: anti-CD4 Fab from Ibalizumab sequence, SEQ ID NO: 10 and 11”, the “% GFP transfection and GFP expression (MFI) of CD8 and CD4 T cells, in words” value in the experiment with human CD3 T cells was “higher % transfection (FIG. 71A) and GFP expression levels; also recorded: highly specific LNP transfection and protein translation of CD4+ T cells versus CD8+ T cells; also recorded: increase in transfection efficiency going from 2K PEG to 3.4K PEG; also recorded: high binding and transfection of CD4 T cells while displaying minimal off-target binding and transfection of CD8 T cells”. Also, the “CD69 upregulation on CD8 and CD4 T cells, in words” value in the experiment with CD69 is recorded as “much lower levels of CD69”.
